Results: patent US20040097433A1, “Chroman derivatives for the reduction of inflammation symptoms” (priority 2002, published 2004)

Experiments:
ELAM (E-selectin) = test: Cell-ELAM (E-selectin) assay; format: cell-based; conditions: Endothelial cell, 6 h, endothelial cells stimulated with LPS and IL-1β for 6 hours; E-selectin antibody ELISA; read-out: EC50 for reducing the expression of ELAM
Text: Another useful cell screening assay, exemplified herein in Example 1B, is the E-selectin (ELAM) production assay, which measures activity of test compounds in reducing expression of ELAM in activated endothelial cells. Briefly, endothelial cells are activated by adding known activators such as lipopolysaccharide, TNF-α, or IL-1β, alone or in some combination. Activated cells produce ELAM, which can be measured using, for example, an E-selectin monoclonal antibody-based ELISA assay. In studies carried out in support of the present invention, ELAM production was decreased. As described herein, chroman derivatives were able to reduce ELAM production in an assay such as the one described in Example 1B.
B. Cell-ELAM Assay. Endothelial-Leukocyte Adhesion Molecule (ELAM), also known as E-selectin, is expressed on the surface of endothelial cells. In this assay, lipopolysaccharide (LPS) and IL-1β are used to stimulate the expression of ELAM; test agents are tested for their abilities to reduce this expression, in accordance with studies showing that reduction of leukocyte adhesion to endothelial cell surface is associated with decreased cellular damage (e.g., Takada, M., Et al., Transplantation 64: 1520-25, 1997; Steinberg, J. B., et al., J. Heart Lung Trans. 13:306-313, 1994).
Endothelial cells may be selected from any of a number of sources and cultured according to methods known in the art; including, for example, coronary artery endothelial cells, human brain microvascular endothelial cells (HBMEC; Hess, D. C., et al., Neurosci. Lett. 213(1): 37-40,1996), or lung endothelial cells. Cells are conveniently cultured in 96-well plates. […] Wells are allowed to develop for 35 minutes, before measurement at 402 nm in a Fluoroskan® Reader with shake program for 10 seconds. Positive results are recorded as a decrease in ELAM concentration in tested wells, as compared to control wells.

CRP = test: Human Hep3B cells CRP assay; format: cell-based; conditions: for reduction of CRP levels (in words): CRP assay of Example 1A; for EC50: Homo sapiens, 72 h, Hep3B cells stimulated with IL-1β, IL-6 and dexamethasone, three days, CRP ELISA on supernatant, normalized to cell count, read-out: EC50 for reducing CRP levels
Procedure: In studies carried out in support of the present invention, a combination of Interleukin-1β, IL-6, and dexamethasone is used to induce CRP production, and counter-agents are tested for their ability to reduce this production in cultured liver cells, as detailed in Example 1A. The assay is performed on cells grown in 96-well format allowing high throughput screening of compounds. As described herein, chroman derivatives were able to reduce CRP levels in an assay such as the one described in Example 1A.
A. Human Hep3B Cells—CRP assay. Hep3B Cell Line is obtained from the American Type Culture Collection (ATCC Catalog No. HB-8064). The Hep3B cell line was derived from liver tissue of […]. The cells are epithelial in morphology and produce tumors in nude mice. The cells produce α-fetoprotein, hepatitis B surface antigen, albumin, α-2-macroglobulin, α-1-antitrypsin, transferrin, plasminogen, complement C3 and β-lipoprotein (Knowles B B, et al., Science, 1980, 209:497499). This cell line has been widely used to study hepatocyte cytokine and acute phase protein release (e.g., Damtew B, et al., 1993, J. Immunol. 150:4001-4007).
HEP3B cells are grown in Minimum Essential Medium (MEM; GIBCO) supplemented with 10% Fetal Bovine Serum (FBS; Hyclone), 1× Penicillin/Streptomycin (GIBCO, Cat#. 15140-122) and 0.1 mM non-essential amino acids (GIBCO, Catalog No. 11140-050). Cells are thawed and transferred to warm medium according to standard methods known in the art.
Cells are incubated in flasks at 37° C. with 5% CO2 in an air atmosphere incubator. HEP3B growth media is changed every 2 days until the cells reach 70-80% confluence (approx. 3-4 days). For assay, the cells are transferred to 96-well plates, seeded at 5000 cells per well in culture media, and left to grow for 7 days in a 37° C. incubator (air supplemented with 5% CO2). Media is replaced daily until assay. […]
100 μl HRP-conjugated rabbit anti-human CRP (DAKO) diluted 1:500 (in CRP wash buffer) is added to each well, followed by incubation for 30 minutes at 37° C. […] Finally, 50 μl of 1M H2SO4 is added to each well and absorbance at 450 nm is immediately measured in a microtiter spectrophotometer.
CRP measured as above is normalized to cell count per well, using a cell viability assay, such as the Cell Tracker Green assay. […] Plates are immediately read using a Fluoroskan® flourometer with a 485 excitation/538 emission filter pair.

CD-1 mice = test: Arachidonic acid ear inflammation model; format: in vivo, mouse; conditions: topical to left ear, 20 μL in 70% ethanol/30% propylene glycol; ear punch weight difference one hour after treatment
Procedure: This assay measures the ability of test compounds to prevent or reduce inflammation secondary to oxazolone or arachidonic acid.
A. Arachidonic acid. Albino male CD-1 mice, 7-9 weeks old were used in this test. A 20% (w/v) arachidonic acid solution in acetone was prepared. Twenty microliters of the arachidonic acid solution was applied to the dorsal left ear of the mouse. Immediately thereafter, test compounds (20 μL in 70% ethanol/30% propylene glycol) were applied to the left ear. The untreated right ears served as control. Mice are sacrificed by CO2 inhalation, one hour after treatment. The left and right ears were removed and 7 mm punch biopsies taken from each. The punch biopsies were weighed, and the differences calculated.

Structure (SMILES)	EC50 (ELAM (E-selectin)) [µM]	reduction of CRP levels (in words) (CRP)	EC50 (CRP) [µM]	protection in arachidonic acid ear inflammation assay (CD-1 mice)
Cc1c(C)c2c(c(C)c1O)CCC(C)(C(=O)NCC1C3CC4CC(C3)CC1C4)O2 (stereo not drawn) [6-Hydroxy-2,5,7,8-tetramethyl-chroman-2-carboxylic acid (adamantan-2-ylmethyl)-amide]	10 to 100			
Cc1c(O)cc2c(c1C)OC(C)(CCC(=O)O)CC2 (stereo not drawn) [3-(6-hydroxy-2,7,8-trimethyl-chroman-2-yl)-propionic acid]		effective at reducing CRP levels	40 to 60	
COC(=O)CCC1(C)CCc2c(Br)c(O)c(C)c(C)c2O1 (stereo not drawn) [3-(5-Bromo-6-hydroxy-2,7,8-trimethyl-chroman-2-yl)-propionic acid methyl ester]	10 to 100			about 40%
CC1(CCC(=O)O)CCc2ccc(O)c(O)c2O1 (stereo not drawn) [3-(7,8-Dihydroxy-2-methyl-chroman-2-yl)-propionic acid]	10 to 100			about 40%
COC(=O)CCC1(C)CCc2cc(O)c(C)c(C)c2O1 (stereo not drawn) [3-(6-hydroxy-2,7,8-trimethyl-chroman-2-yl)propionic acid methyl ester]		effective at reducing CRP levels	10 to 30	
